Experimental data taken from article PMC10828444, “Selective inhibition of overactive warmth-sensitive Ca^2+-permeable TRPV3 channels by antispasmodic agent flopropione for alleviation of skin inflammation” (The Journal of Biological Chemistry, 2023).

Columns and labels:
Format in all cases: cell-based
mTRPV2 = target: T1, mTRPV2 (Mus musculus, UniProt Q9WTR1); experiment: Whole-cell patch-clamp of TRPV2 currents activated by 2-APB in HEK293 cells; conditions: flopropione 100 μM, 2-APB 2 mM
T1 construct: expressed in transfected cells; host or cells: HEK293
T1 sequence (Q9WTR1 1-756): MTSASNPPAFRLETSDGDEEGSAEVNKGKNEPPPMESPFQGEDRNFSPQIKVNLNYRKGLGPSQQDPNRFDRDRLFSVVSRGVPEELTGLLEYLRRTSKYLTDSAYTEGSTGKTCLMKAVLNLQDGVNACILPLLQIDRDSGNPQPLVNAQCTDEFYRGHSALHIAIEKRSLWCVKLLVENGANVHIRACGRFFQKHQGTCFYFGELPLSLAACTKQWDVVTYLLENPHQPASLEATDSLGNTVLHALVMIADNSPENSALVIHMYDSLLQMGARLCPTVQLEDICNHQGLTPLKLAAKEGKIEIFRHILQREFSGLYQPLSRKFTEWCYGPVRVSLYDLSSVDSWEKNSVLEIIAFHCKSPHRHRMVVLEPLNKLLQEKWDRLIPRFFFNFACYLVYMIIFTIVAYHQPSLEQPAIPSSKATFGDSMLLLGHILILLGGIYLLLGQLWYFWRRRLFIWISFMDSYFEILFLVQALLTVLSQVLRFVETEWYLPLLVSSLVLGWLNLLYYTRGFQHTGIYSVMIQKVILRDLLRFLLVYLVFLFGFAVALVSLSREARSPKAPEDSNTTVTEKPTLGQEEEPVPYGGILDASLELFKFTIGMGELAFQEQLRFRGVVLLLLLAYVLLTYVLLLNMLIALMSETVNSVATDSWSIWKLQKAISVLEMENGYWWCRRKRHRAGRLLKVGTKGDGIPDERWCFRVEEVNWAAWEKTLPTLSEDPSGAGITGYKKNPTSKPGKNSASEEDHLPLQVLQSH
Method: (§1) HEK293 cells were cultured in Dulbecco’s modified Eagle’s medium (DMEM, Gibco) containing 4.5 g/L D-glucose supplemented with 10% fetal bovine serum based at 37 °C with 5% CO2. For whole-cell patch-clamp recordings, cells were grown in glass coverslips for 24 h before transient transfections with 3000 ng cDNAs of hTRPV3 (gene accession number BC104866.1), hTRPV1 (accession number NM_080704.3), mTRPV2 (accession number NM_011706.2), hTRPV4 (accession number NM_021625.5), hTRPA1 (accession number NM_007332.3) and hTRPM8 (accession number NM_024080.5) into HEK293 cells grown in a 35-mm cell culture dish using Lipofectamine 2000 (Invitrogen). Cells were used 18 ∼ 24 h after transfection. All WT or mutant hTRPV3 plasmids were validated by DNA sequencing.
(§2) Whole-cell patch clamp recordings of wild-type and mutants were carried out at room temperature using the HEKA EPC10 amplifier powered by PatchMaster software (HEKA) or MultiClamp 700B amplifier driven by Clampex 11.0.3 software. The borosilicate glass pipettes were pulled and fire-polished to 3∼6 MΩ using a DMZ universal electrode puller (Zeitz-Instruments, GmbH). Pipette solution and bath solution both contained (in mM): 130 NaCl, three HEPES, and 0.2 EDTA (pH = 7.4). Cell membrane potential was held at 0 mV, currents were recorded at a voltage ramp from −100 to +100 mV for 500-ms and analyzed at ±80 mV.

TRPV3-E501A mutant = target: T2, TRPV3-E501A mutant (Homo sapiens, UniProt Q8NET8, E501A); experiment: Whole-cell and single-channel recordings of TRPV3-E501A mutant; conditions: 100 μM flopropione whole-cell (50 μM 2-APB); 50 μM single-channel (30 μM 2-APB)
T2 construct: expressed in transfected cells; host or cells: HEK293
T2 sequence (Q8NET8 1-790 E501A): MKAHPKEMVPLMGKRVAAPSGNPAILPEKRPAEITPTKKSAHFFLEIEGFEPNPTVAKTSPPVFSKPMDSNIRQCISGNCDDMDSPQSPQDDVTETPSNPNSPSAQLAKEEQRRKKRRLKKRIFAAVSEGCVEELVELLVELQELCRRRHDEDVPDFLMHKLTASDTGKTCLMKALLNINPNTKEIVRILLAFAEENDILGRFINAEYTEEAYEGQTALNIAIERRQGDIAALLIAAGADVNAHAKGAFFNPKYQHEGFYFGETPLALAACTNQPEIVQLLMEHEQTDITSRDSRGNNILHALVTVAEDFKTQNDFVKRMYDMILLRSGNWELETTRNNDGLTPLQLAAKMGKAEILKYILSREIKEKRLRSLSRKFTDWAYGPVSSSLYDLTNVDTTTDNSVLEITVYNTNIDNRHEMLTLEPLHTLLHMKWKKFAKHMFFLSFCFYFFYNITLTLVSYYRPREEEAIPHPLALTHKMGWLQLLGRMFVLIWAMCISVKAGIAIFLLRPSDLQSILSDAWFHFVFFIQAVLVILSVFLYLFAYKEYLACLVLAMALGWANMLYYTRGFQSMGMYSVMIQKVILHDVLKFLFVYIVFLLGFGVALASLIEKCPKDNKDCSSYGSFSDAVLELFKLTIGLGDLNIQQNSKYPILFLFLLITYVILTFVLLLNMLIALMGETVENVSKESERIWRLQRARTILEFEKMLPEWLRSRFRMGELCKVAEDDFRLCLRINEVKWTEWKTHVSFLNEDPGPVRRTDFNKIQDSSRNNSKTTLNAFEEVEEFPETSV
Method: as §1
as §2, with “mV. […]” for “mV.”

hTRPA1 = target: T3, hTRPA1 (Homo sapiens, UniProt O75762); experiment: Whole-cell patch-clamp of TRPA1 currents activated by AITC in HEK293 cells; conditions: flopropione 100 μM, AITC 300 μM
T3 construct: expressed in transfected cells; host or cells: HEK293
T3 sequence (O75762 whole entry): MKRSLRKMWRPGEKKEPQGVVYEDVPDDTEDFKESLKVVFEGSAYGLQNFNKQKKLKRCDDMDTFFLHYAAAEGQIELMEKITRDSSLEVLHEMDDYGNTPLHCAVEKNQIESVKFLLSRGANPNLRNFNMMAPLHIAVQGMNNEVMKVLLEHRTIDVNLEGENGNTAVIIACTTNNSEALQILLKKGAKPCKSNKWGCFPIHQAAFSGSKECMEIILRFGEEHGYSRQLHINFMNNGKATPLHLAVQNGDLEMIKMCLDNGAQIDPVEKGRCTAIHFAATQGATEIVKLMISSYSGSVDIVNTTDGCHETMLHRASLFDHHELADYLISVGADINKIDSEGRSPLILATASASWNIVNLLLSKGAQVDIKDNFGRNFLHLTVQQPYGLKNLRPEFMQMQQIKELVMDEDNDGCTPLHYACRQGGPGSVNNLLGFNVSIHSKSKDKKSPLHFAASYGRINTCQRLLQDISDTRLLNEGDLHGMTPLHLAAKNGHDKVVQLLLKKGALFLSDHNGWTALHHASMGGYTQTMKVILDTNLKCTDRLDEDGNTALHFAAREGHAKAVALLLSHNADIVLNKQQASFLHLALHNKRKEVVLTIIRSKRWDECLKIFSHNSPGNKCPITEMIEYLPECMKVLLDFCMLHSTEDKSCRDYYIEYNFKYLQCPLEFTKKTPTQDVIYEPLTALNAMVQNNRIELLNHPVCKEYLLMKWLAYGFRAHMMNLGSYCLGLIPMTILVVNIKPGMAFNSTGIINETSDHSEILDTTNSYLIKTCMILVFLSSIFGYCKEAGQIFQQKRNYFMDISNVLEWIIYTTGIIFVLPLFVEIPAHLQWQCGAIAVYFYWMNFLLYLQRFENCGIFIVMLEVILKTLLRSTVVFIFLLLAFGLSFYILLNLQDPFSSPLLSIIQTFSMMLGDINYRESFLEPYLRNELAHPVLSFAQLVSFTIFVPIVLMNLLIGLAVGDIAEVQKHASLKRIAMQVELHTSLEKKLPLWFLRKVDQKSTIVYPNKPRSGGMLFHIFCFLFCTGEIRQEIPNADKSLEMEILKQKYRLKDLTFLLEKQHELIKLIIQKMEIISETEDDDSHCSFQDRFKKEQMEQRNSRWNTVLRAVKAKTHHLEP
Method: as §1, §2

inhibition at 100 µM (mTRPV2): ~60%
effect of E501A mutation on inhibition by flopropione (TRPV3-E501A mutant): significantly reduced TRPV3 inhibition
effect on TRPA1 currents (hTRPA1): no effect
SMILES: CCC(=O)c1c(O)cc(O)cc1O [flopropione]
